# Measurements reported in ChEMBL document CHEMBL1149992 (Bioorg Med Chem Lett, 1997).
# Tests used:
# Butyrylcholinesterase = Butyrylcholinesterase (Rattus norvegicus, UniProt Q9JKC1)
# Description: Compound was tested in vitro for inhibitory activity against Butyrylcholinesterase
# Acetylcholinesterase [1] = biological target: T1, Acetylcholinesterase (Homo sapiens, UniProt P22303); test: In vitro selectivity towards Acetylcholinesterase relative to compound 1
# Acetylcholinesterase [2] = biological target: T1, Acetylcholinesterase
# Description: Compound was tested in vitro for inhibitory activity against Acetylcholinesterase
# Acetylcholinesterase [3] = biological target: T2, Acetylcholinesterase (Rattus norvegicus, UniProt P37136)
# T2 sequence (P37136 whole entry): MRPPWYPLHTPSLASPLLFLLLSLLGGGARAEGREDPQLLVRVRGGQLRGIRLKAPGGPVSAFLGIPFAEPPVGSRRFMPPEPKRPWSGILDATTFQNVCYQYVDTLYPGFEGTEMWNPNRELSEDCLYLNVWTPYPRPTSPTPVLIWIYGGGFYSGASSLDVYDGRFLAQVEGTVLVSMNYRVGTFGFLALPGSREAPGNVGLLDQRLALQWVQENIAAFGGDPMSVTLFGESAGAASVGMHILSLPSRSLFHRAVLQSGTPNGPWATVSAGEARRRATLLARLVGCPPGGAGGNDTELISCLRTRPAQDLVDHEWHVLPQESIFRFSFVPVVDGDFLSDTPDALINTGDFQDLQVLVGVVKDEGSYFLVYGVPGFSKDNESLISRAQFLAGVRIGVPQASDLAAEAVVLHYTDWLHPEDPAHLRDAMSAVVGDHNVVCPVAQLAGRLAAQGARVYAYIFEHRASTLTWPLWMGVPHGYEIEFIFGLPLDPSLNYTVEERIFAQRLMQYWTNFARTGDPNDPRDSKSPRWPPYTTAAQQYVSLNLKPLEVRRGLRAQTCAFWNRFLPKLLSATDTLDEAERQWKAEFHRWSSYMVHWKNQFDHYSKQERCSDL
# Description: Compound was tested in vitro for inhibitory activity against Acetylcholinesterase in rat cortex
# Butyrylcholinesterase, sequence (Q9JKC1 whole entry): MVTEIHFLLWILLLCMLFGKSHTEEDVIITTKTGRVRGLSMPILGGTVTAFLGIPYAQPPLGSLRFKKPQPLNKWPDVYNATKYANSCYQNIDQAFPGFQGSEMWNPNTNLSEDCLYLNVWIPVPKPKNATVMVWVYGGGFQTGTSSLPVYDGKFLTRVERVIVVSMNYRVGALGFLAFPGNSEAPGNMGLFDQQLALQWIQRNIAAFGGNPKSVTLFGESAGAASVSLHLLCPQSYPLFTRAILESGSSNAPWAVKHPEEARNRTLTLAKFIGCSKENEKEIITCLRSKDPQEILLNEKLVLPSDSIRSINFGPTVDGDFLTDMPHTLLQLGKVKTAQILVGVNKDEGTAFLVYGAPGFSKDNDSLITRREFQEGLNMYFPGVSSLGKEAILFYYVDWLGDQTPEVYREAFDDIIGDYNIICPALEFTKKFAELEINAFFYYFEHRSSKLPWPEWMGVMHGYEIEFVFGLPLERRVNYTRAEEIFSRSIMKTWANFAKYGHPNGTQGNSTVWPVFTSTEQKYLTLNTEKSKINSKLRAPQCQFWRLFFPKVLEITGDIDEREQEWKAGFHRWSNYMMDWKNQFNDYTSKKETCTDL
# T1 sequence (P22303 whole entry): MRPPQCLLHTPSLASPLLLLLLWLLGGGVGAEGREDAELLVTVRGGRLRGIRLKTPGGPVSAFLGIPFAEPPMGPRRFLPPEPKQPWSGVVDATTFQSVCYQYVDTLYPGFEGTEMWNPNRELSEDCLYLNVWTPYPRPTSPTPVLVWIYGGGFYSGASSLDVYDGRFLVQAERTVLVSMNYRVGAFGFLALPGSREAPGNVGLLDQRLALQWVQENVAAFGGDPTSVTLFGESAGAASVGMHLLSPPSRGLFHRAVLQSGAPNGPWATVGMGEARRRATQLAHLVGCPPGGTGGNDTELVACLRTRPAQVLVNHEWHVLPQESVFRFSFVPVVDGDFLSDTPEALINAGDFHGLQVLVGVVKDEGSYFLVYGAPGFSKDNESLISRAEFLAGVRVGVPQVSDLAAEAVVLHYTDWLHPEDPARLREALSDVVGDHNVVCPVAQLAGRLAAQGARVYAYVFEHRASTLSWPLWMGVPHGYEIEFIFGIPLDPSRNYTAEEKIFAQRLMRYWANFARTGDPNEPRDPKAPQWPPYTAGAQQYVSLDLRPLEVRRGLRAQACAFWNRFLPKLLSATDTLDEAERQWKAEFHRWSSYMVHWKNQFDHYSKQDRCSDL
SMILES,IC50 (Butyrylcholinesterase) [µM],Relative Selectivity (Acetylcholinesterase [1]),IC50 (Acetylcholinesterase [2]) [µM],IC50 (Acetylcholinesterase [3]) [µM]
Nc1c2c(nc3ccccc13)-c1ccccc1C2,4.67,32.1,0.676,0.48
Nc1c2c(nc3ccccc13)-c1ccccc1CC2,1.18,1.83,2.98,4
Nc1c2c(nc3ccccc13)-c1ccccc1CS2,4.9,1.22,18.6,> 100
Nc1c2c(nc3ccccc13)-c1ccccc1CO2,6.58,0.13,245,> 100
Nc1cc(-c2ccccc2)nc2ccccc12,12,4.86,11.5,> 100
